Results from ChEMBL document CHEMBL1201862, “PubChem BioAssay data set” (2004).
Calls of active or inactive are those of the source.

Columns and labels:
[1] = HEK293 cell cytotoxicity, dose response, cytotoxicity control, cherry-picks, set 5 (AID 1053117); format: functional, cell-based
INS1 = assay: beta cell apoptosis inhibitors, cytokine rescue, dose response, luminescence, retest (AID 449756); format: functional, cell-based; settings: Rattus norvegicus;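 note: cell death triggered by IL-1 beta plus TNF-alpha plus IFN-gamma mixture; protective hits raise ATP signal compared with cytokine alone wells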
[2] = molecular target: Disintegrin and metalloproteinase domain-containing protein 17 (Homo sapiens, UniProt P78536); assay: exosite inhibitors of ADAM17, dose response, biochemical (AID 743260)
Sequence of Disintegrin and metalloproteinase domain-containing protein 17 (P78536 whole entry, the tested form may be a part): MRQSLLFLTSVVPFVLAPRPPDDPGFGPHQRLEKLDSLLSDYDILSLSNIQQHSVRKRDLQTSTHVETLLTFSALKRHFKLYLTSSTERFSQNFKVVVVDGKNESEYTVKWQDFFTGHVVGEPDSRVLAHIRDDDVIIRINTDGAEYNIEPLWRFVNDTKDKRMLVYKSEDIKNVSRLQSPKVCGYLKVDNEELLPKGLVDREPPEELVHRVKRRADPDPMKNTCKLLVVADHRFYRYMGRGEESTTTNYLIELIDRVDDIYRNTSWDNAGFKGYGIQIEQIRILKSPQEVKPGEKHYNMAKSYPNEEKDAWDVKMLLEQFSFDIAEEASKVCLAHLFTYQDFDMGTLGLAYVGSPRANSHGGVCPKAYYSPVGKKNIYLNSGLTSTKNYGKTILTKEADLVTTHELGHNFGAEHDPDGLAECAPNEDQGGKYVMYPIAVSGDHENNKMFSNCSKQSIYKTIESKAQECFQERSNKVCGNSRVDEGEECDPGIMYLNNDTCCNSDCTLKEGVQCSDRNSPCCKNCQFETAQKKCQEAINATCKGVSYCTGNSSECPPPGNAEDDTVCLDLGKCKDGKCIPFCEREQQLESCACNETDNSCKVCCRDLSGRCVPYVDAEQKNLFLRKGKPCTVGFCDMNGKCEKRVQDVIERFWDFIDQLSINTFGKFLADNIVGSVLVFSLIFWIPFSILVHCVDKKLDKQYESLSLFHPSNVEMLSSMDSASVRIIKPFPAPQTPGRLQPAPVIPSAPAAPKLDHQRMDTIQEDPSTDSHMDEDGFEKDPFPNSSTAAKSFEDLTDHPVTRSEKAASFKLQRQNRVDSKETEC

[3] = ADAM10 protease inhibitors, dose response, selectivity assay for ADAM17 exosite inhibitor project, biochemical, FRET peptide substrate, recombinant human ADAM10 (AID 743259);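 note: ADAM10 enzyme cleaving a FRET peptide substrate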
cells = format: functional, cell-based; settings: HEK-CNG
[4] = molecular target: T1, COUP transcription factor 2 (Homo sapiens, UniProt P24468); assay: Luminescence-based cell-based high throughput dose response assay to identify inhibitors of COUP-TFII (NR2F2).; format: functional;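 note: HEK293 cells transiently cotransfected with COUP-TFII expression vector and reporter; luciferase reporter luminescence driven by COUP-TFII from the pX2-168 reporter plasmid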
T1 sequence (P24468 whole entry): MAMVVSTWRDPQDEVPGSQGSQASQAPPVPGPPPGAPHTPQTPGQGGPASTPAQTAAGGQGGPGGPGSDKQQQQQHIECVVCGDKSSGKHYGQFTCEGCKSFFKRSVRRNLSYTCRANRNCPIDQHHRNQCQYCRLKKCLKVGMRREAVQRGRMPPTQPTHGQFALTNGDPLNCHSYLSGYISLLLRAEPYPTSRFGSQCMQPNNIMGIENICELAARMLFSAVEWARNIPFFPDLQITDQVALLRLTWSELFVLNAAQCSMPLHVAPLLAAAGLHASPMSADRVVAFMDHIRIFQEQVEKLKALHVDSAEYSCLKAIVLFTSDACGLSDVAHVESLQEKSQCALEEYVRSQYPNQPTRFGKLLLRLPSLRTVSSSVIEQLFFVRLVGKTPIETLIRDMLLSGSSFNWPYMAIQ

Galanin receptor type 3 = molecular target: T2, Galanin receptor type 3 (Homo sapiens, UniProt O60755); assay: Fluorescence-based cell-based primary high throughput dose response assay to identify antagonists of the Galanin Receptor 3 (GalR3).; format: functional
T2 sequence (O60755 whole entry): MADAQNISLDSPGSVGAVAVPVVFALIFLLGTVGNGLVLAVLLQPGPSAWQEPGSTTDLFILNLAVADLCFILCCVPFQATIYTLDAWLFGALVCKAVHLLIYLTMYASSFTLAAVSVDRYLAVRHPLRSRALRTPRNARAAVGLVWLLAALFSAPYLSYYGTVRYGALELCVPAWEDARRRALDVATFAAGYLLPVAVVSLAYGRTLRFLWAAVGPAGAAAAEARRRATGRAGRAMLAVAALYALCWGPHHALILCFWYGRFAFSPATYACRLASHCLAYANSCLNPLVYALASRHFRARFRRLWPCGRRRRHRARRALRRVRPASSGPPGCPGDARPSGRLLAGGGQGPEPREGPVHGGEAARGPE

[5] = cytotoxicity in HEK-293T cells, dose response, cytotoxicity control for TCR NF-kB inhibitor project, luminescence, T-cell screen hits (AID 489026); format: functional, cell-based;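 note: cells exposed to compound about 14 hours before the viability readout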
[6] = molecular target: T3, Zinc finger protein mex-5 (Caenorhabditis elegans, UniProt Q9XUB2); assay: MEX-5/TCR-2 RNA interaction inhibitors, dose response, biochemical, C. elegans, fluorescence polarization (AID 1960)
T3 sequence (Q9XUB2 whole entry): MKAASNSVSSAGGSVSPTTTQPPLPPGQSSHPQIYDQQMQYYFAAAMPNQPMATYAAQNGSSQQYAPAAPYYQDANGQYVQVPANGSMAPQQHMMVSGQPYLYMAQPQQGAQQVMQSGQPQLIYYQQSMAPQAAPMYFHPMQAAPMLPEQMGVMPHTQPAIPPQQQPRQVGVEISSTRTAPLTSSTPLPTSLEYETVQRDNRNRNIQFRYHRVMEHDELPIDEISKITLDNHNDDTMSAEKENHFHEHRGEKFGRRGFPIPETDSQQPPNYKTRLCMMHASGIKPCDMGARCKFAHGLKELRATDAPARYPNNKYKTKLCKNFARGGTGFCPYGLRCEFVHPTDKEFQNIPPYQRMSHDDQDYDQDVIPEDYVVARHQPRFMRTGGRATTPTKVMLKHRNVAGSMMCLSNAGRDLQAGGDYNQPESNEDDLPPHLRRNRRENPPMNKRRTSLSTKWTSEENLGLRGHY

[7] = molecular target: T4, RNA-binding protein pos-1 (Caenorhabditis elegans, UniProt G5EF15); assay: inhibitors of POS-1/mex-3 RNA binding, dose response, biochemical, fluorescence polarization (AID 1964);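 note: purified POS-1 fused to maltose binding protein made in E. coli; potency of compounds blocking POS-1 binding to fluorescent RNA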
T4 sequence (G5EF15 whole entry): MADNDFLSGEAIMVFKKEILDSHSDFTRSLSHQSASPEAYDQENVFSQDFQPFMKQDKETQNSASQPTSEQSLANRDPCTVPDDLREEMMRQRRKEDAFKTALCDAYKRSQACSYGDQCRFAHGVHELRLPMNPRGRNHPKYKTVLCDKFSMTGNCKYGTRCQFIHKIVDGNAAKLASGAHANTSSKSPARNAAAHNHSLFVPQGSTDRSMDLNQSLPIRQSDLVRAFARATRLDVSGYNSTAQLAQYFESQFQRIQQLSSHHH

Genome polyprotein = Genome polyprotein (dengue virus type 2, UniProt P29990); assay: Dengue-2 NS5 methyltransferase inhibitors, primary screen, biochemical, confirmation dose response (AID 588689); format: functional
Sequence of Genome polyprotein (P29990 2492-3391 limits assumed): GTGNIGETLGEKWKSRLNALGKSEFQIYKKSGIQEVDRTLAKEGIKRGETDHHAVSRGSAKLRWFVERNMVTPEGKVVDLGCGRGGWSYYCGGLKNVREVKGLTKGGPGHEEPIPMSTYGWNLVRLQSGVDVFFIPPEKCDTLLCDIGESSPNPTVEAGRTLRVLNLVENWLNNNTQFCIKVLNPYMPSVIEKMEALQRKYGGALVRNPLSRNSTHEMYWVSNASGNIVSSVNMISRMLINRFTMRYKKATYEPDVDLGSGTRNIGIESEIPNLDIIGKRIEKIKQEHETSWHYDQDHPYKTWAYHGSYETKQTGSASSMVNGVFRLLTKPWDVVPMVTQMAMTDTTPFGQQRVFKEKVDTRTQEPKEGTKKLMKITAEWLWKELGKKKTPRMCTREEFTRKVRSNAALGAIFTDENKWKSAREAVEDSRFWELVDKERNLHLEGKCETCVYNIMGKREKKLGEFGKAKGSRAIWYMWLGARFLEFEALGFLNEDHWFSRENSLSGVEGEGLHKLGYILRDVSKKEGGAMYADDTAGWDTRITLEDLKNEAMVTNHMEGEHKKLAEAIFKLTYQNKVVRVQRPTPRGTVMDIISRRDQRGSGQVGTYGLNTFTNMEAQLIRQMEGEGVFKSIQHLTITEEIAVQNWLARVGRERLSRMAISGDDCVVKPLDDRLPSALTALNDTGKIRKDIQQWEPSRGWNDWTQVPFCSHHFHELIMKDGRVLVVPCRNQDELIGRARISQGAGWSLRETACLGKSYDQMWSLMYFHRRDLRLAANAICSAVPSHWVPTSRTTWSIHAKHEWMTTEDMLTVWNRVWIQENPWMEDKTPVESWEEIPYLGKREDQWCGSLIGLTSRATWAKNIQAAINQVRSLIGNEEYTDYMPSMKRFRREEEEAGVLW

Albumin = Albumin (Bos taurus, UniProt P02769); assay: Counterscreen for inhibitors of T-cell receptor (TCR)-CD3 interaction: Fluorescence-based biochemical high throughput dose response assay to identify inhibitors of T-cell receptor (TCR)-CD3 interaction using a TAMRA-labeled BSA probe.; format: functional
Sequence of Albumin (P02769 whole entry): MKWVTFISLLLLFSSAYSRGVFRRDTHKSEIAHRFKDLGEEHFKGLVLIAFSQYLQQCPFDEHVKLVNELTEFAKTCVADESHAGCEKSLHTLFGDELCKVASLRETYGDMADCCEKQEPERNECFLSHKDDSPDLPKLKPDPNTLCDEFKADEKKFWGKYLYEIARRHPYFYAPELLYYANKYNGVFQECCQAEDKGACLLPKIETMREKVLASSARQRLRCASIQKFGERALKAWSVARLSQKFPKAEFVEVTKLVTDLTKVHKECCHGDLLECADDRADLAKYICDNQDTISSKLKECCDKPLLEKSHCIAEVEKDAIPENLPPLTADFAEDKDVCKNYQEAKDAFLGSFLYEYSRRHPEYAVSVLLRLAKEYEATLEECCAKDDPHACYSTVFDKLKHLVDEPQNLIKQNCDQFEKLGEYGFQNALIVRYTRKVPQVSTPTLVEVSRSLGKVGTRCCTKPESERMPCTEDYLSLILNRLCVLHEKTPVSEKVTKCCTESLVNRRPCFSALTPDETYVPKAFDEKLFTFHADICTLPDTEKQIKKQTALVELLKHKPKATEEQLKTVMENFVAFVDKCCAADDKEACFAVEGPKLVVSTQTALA

[8] = non-specific cell cytotoxicity, dose response, cytotoxicity control for PAX8 inhibitor project, plate reader, dry powder samples (AID 743021); format: functional, cell-based
BJ [9] = assay: cytotoxicity toward BJ-TERT fibroblasts, dose response, cell-based, RAS-independent, luminescence (AID 1933); format: functional; settings: Homo sapiens
[10] = cytotoxicity toward DRD oncogenic fibroblasts, dose response, cell-based, non-viral oncogenic, luminescence (AID 1934); format: functional; settings: Homo sapiens
BJ [11] = assay: cytotoxicity toward BJ-TERT-LT-ST fibroblasts, dose response, cell-based, RAS-independent, luminescence (AID 1935); format: functional; settings: Homo sapiens;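 note: BJ fibroblasts immortalized with TERT plus LT and ST oncogenes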
HEK293 [12] = assay: NOD1 signaling inhibitors, primary screen, cell-based, luminescence, uHTS (AID 1578); format: functional; settings: Homo sapiens
Paired box protein Pax-8 = Paired box protein Pax-8 (Homo sapiens, UniProt Q06710); assay: inhibitors of PAX8-driven TPO luciferase reporter, dose response, RMG-I cells, cherry-pick (AID 687027); format: functional, cell-based;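 note: luciferase reporter driven by Pax8 target thyroperoxidase promoter measured by SteadyGlo luminescence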
Sequence of Paired box protein Pax-8 (Q06710 whole entry): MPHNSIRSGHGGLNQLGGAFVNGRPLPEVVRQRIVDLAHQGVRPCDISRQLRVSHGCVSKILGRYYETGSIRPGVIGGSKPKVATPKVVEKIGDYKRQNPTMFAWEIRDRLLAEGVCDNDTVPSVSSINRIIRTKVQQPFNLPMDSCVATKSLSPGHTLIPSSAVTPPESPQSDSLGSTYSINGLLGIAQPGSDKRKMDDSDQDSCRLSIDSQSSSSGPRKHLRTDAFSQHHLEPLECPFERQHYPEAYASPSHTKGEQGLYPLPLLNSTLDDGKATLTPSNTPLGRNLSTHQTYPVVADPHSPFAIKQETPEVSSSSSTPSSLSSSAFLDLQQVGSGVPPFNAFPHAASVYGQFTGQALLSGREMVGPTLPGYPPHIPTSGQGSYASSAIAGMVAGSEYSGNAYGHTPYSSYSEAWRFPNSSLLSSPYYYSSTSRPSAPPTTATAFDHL

BJ [13] = assay: cytotoxicity toward Ras-transformed BJeLR fibroblasts, dose response, cell-based, alamar blue fluorescence, cherrypicked samples (AID 2631); format: functional; settings: Homo sapiens;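 note: confirmatory dose-response assay in RAS-dependent BJ fibroblasts engineered with TERT, LT and ST, with cytotoxicity read by fluorescence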
HEK293 [14] = assay: cells; format: functional, cell-based; settings: Homo sapiens
BJ [15] = assay: cells; format: functional, cell-based; settings: Homo sapiens
HEK293 [16] = assay: NOD2 signaling inhibitors in MDP-stimulated cells, cell-based, uHTS, luminescence (AID 2001); format: functional; settings: Homo sapiens
HEK293 [17] = assay: cells; format: functional, cell-based; settings: Homo sapiens; remark: listed apart in the source
[18] = P. falciparum Dd2 growth inhibitors, dose response, SYBR Green, cherry-picked samples (AID 1159567); format: functional, cell-based
[19] = HepG2 cell cytotoxicity, dose response, cytotoxicity control, cherry-picked samples (AID 1159577); format: functional, cell-based
[20] = molecular target: Mitogen-activated protein kinase 10 (Homo sapiens, UniProt P53779); assay: Dose response biochemical screening assay for inhibitors of c-Jun N-Terminal Kinase 3 (JNK3). [Related pubchem assays: 746 ]
Sequence of Mitogen-activated protein kinase 10 (P53779 whole entry): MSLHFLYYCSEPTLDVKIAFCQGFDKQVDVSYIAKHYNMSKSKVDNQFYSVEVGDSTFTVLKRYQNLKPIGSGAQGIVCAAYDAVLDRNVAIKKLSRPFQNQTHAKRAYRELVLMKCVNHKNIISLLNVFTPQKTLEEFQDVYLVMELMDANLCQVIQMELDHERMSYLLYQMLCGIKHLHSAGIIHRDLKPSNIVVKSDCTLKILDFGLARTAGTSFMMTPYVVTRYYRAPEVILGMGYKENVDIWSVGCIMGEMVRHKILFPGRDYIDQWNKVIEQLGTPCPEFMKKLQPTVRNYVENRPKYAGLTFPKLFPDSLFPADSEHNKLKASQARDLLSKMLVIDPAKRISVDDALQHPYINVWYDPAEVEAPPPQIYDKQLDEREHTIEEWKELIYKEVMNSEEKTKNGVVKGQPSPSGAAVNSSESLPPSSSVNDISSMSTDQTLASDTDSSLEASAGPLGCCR

[21] = molecular target: NAD-dependent protein deacylase sirtuin-5, mitochondrial (Homo sapiens, UniProt Q9NXA8); assay: SIRT5 desuccinylase inhibitors, dose response, biochemical, fluorescence imaging, cherry-pick, set 5 (AID 720591);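 note: desuccinylation of succinyl peptide AMC substrate read as fluorescence after trypsin release; potency of inhibitors that lower fluorescence and may act on trypsin instead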
Sequence of NAD-dependent protein deacylase sirtuin-5, mitochondrial (Q9NXA8 whole entry): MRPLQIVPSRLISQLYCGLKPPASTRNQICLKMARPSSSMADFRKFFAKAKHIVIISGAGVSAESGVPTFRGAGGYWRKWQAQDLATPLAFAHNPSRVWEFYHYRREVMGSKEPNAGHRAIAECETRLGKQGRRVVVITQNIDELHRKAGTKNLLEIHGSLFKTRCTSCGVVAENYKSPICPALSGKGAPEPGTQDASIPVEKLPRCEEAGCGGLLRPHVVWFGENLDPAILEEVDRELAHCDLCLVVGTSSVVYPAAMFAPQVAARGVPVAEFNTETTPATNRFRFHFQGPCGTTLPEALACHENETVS

[22] = T. cruzi growth inhibition in host cells, dose response, cell-based, plate reader, dry powder, set 2 (AID 652275); format: functional

With `C[C@H](CO)N1C[C@H](C)[C@@H](CN(C)C(=O)c2cccc(F)c2)Oc2ncc(-c3ccccc3)cc2C1=O` the AC50 [1] was > 52 µM (inactive).
In the case of `Cc1cccc(C2(c3cccc(C)c3)OC(=O)c3ccccc32)c1`, the AC50 (INS1) is reported as 17.7 µM (active), the IC50 [2] is reported as > 69.5 µM (inactive) and the IC50 [3] is reported as > 23.2 µM (inactive).
With `Cc1cc(C)c(CN2CCN(C(=O)Cn3cnc4c(OCc5ccccc5)ncnc43)CC2)c(C)c1` the EC50 (cells) was > 29.9 µM (inactive), the IC50 [4] was 5.99 µM (active) and the AC50 (INS1) was 3.51 µM (active). The IC50 (Galanin receptor type 3) was 2.86 µM (active) and the IC50 [5] was > 80 µM (inactive).
For `CCC(=O)Nc1ccc2nc3c(O)nc(S)nc3nc2c1`, the EC50 [6] was 12.3 µM (active), the EC50 [7] was 20.9 µM (active) and the IC50 (Genome polyprotein) was 39.4 µM (active). For the same compound, the IC50 (Albumin) was > 94.1 µM (inactive).
For `COc1ccc(C(C(=O)NC2CCCCC2)N(C(=O)CCl)c2ccc(C)cc2)cc1` (centres undefined), the AC50 [8] was 0.827 µM (active), the EC50 (BJ [9]) was 0.84 µM (inconclusive) and the EC50 [10] was 0.748 µM (active). For the same compound, the EC50 (BJ [11]) was 6.27 µM (active), the EC50 (HEK293 [12]) was 15.6 µM (active) and the AC50 (Paired box protein Pax-8) was 0.533 µM (active). The EC50 (BJ [13]) was 9.18 µM (active), the IC50 (HEK293 [14]) was 17.5 µM (active) and the IC50 [5] was > 80 µM (inactive). For the same compound, the EC50 (BJ [15]) was 2.63 µM (active), the IC50 (HEK293 [16]) was 7.21 µM (active) and the IC50 (HEK293 [17]) was 5.75 µM (active).
In the case of `Cc1ccc(S(=O)(=O)N2CCCCC2)cc1NC(=O)CNc1ccc(C(F)(F)F)cc1`, the IC50 [2] is reported as > 69.5 µM (inactive) and the IC50 [3] is reported as 8.89 µM (active).
With `C[C@H]1CN([C@@H](C)CO)C(=O)c2cc(C#CCc3ccccc3)cnc2O[C@@H]1CN(C)CC1CCCC1` the AC50 [18] was 4.29 µM (active) and the AC50 [19] was 11.2 µM (active).
For `CCCc1cc(O)n2c(n1)nc1ccccc12`, the IC50 [20] was 35 µM (not active).
With `CN(C)C(=O)c1cc(C(=O)c2ccc(C(F)(F)F)cc2F)c[nH]1` the AC50 [21] was > 30 µM (inactive).
In the case of `CC(C)N1C[C@H](C)[C@@H](CN(C)Cc2ccc(Oc3ccccc3)cc2)Oc2c(cccc2-c2nn[nH]n2)C1=O`, the AC50 [22] is reported as 7.34 µM (active).
With `CCC(=O)N1[C@H](CO)[C@H](c2ccc(C3=CCCC3)cc2)[C@H]1CNCC1CCCC1` the AC50 [18] was 3.77 µM (active) and the AC50 [19] was > 39 µM (inactive).
